{"source": "patent US20190008870A1", "about": "“COMPOSITIONS AND METHODS FOR LIPID METABOLISM DISORDER” (JANSFAT BIOTECHNOLOGY CO., LTD., priority 2016, published 2019)", "key": {"ROCK II": {"tested_on": "ROCK II", "assay": "Expression of ROCK II (Table 12)", "conditions": "Control group 100 (%)"}, "liver fat globules": {"tested_on": "liver fat globules", "assay": "Amounts and diameter of liver fat globules in IHC-stained liver sections (steatohepatitis)", "format": "in vivo", "set-up": "Amounts of liver fat globules, p-HSL staining / Amounts of liver fat globules, TNF-α staining / Amounts of liver fat globules, MMP-9 staining / Amounts of liver fat globules, HSL staining / Amounts of fat globules in steatohepatitis, ATGL staining / Amounts of fat globules in steatohepatitis, CD11c-M1 staining / Amounts of fat globules in steatohepatitis, CD209a-M2 staining: unit not given here", "conditions": "HFD mice", "description": "The diameter of the white bar in the photograph was standardized at […] for measuring the specific diameter of oil globulets in a whole liver slice, observed by microscope, with the aid of Powerpoint PC computer software (Microsoft®, U.S.A.) and printed out by a Hewlett-Packard® printer (U.S.A.). An increase in oil globulet diameter and cell number indicated increasing liver steatosis, i.e. steaotohepatitis. In contrast, decrease in diameter and the number of fat cells indicated the inhibition of steaotohepatitis. […] Hematoxylin-eosin (H&E) and IHC staining of liver were used to assess oil globulet numbers under a microscope.\n(§1) For IHC of MMP-9/TNFα, HSL/p-HSL/ATGL and eNOS/IL-10, antigen retrieval of de-paraffinated sections was performed in Dako target retrieval solution, pH 9.0, in a vegetable steamer followed by the quenching of endogenous peroxidase activity with 3.0% H2O2 in methanol. Sections were then incubated with specific primary antibodies overnight at 4° C. in a humidified chamber. The antibodies used included rabbit polyclonal anti-eNOS (1:50 dilution) (Abcam, Cambridge, UK) or rabbit monoclonal anti-cleaved caspase-3 (1:50 dilution) (Cell Signaling, U.S.A.). The sections were then examined using a DAKO REAL EnVision™ Detection System kit (DAKO, Carpinteria, Calif., U.S.A.) and counterstained with hematoxylin. Images were obtained through a Nikon Eclipse TE200-S microscope."}, "[1]": {"assay": "Body weight and food intake of mice fed with HFD", "format": "in vivo", "description": "(§2) In the experiment, C57BL/6J male mice (21-22 g), after fasting, were fed an HFD as a model of hyperlipidemia for 8 weeks. During the 2 month experiments, mice fasted for one night before the experiment was changed from a standard diet (STD) to an HFD and then the mice were randomly divided into 13 groups, including a protection group, 2 control and 10 treatment groups. Six mice were used in each group. […] Liver from the protection group supplemented with KMUP-1 HCl (1 mg/kg/day) were used to determine the HMG CoA reductase expression. Each group of mice had free access to drinking water from week 1 to week 14. Tap water was used to normalize mineral nutrition.\nWithin 2 months, the 3 day food intake average for each animal was measured. The weight gain and plasma lipid levels of each group were determined and compared to the non-treatment control group. Mouse blood was collected during the daytime by cardiac puncture followed by centrifugation at 90×g (Benchtop Centrifuge, U.S.A.) to separate the serum, and frozen at −80° C., for biochemical analysis using a Hitachi Clinical Analyzer 7070 (Hitachi High-Technologies Co. Tokyo, Japan). Agents used in the assays were obtained from Merck & Co. (Kenilworth, N.J., U.S.A.). Triglyceride (TG), total cholesterol, HDL cholesterol and LDL cholesterol in mouse serum were measured by methods used in the clinic. To measure the hepatic Triglyceride, isolated liver were cut into small chips."}, "SR-B1": {"tested_on": "SR-B1", "assay": "HFD-induced hepatic SR-B1 expression", "format": "in vivo", "conditions": "HFD mice; for SR-B1: CTL 100 (Table 8); for SR-B1 expression: Control 100%", "description": "as §2\nFor the expression of SR-B1, HMGR, PPARγ and ROCK II, isolated liver tissues were cut into small chips and placed into an extraction buffer (Tris 10 mM, pH 7.0, NaCl 140 mM, PMSF 2 mM, DTT 5 mM, NP-40 0.5%, pepstatin A 0.05 mM and leupeptin 0.2 mM) for hepatic protein extraction, and centrifuged at 20,000×g for 30 minutes. The obtained protein extract was boiled to a ratio of 4:1 with a sample buffer (Tris 100 mM, pH 6.8, glycerol 20%, SDS 4% and bromophenol blue 0.2%). Electrophoresis was performed using 10% SDS-polyacrylamide gel (1 hour, 100 V, 40 mA, 20 μg protein per lane).\nSeparated proteins, after 3 repeated centrifugations to discard up-layer tissue lipid in purity, were transferred to PVDF membranes treated with 5% fat-free milk powder to block the nonspecific IgGs (90 minutes, 100 V) and incubated for 1 hour with specific protein antibody. The blot was then incubated with anti-mouse or anti-goat IgG linked to alkaline phosphatase (1:1000) for 1 hour."}, "HSL": {"tested_on": "HSL", "assay": "IHC staining of HSL in epididymal fat pads", "format": "in vivo, mice", "conditions": "HFD 14 weeks, KMUP-1 2.5 mg/kg/day, Control 34", "description": "as §1"}, "PKA/PKG": {"tested_on": "PKA/PKG", "assay": "Hepatic PKA/PKG expression in HFD mice", "format": "in vivo", "conditions": "Control printed 550%"}, "eNOS": {"tested_on": "eNOS", "assay": "IHC staining of eNOS in epididymal fat pads", "format": "in vivo, mice", "conditions": "HFD 14 weeks, KMUP-1 2.5 mg/kg/day, Control 50.5", "description": "as §1"}, "TNF-α": {"tested_on": "TNF-α", "assay": "IHC staining of TNF-α in epididymal fat pads", "format": "in vivo, mice", "conditions": "HFD 14 weeks, KMUP-1 2.5 mg/kg/day, Control 36", "description": "as §1"}, "[2]": {"conditions": "drinking KMUP-1, Protection group"}, "[3]": {"conditions": "drinking KMUP-1, Treatment group"}}}
{"smiles": "Cn1c(=O)c2c(ncn2CCN2CCN(c3ccccc3Cl)CC2)n(C)c1=O", "note": "[KMUP-1, 7-[2-[4-(2-chlorophenyl)piperazinyl]ethyl]-1,3-dimethylxanthine]", "values": [{"measurement": "ROCK II expression", "setting": "ROCK II", "value": "42.5 ± 6.3", "unit": "%"}, {"measurement": "Amounts of fat globules in steatohepatitis, ATGL staining", "setting": "liver fat globules; Protection group", "value": 28}, {"measurement": "Amounts of fat globules in steatohepatitis, CD11c-M1 staining", "setting": "liver fat globules; Protection group", "value": 26}, {"measurement": "Amounts of fat globules in steatohepatitis, CD209a-M2 staining", "setting": "liver fat globules; Protection group", "value": 41}, {"measurement": "Amounts of liver fat globules, HSL staining", "setting": "liver fat globules; Protection group", "value": 115}, {"measurement": "Amounts of liver fat globules, MMP-9 staining", "setting": "liver fat globules; Protection group", "value": 18}, {"measurement": "Amounts of liver fat globules, TNF-α staining", "setting": "liver fat globules; Protection group", "value": 18}, {"measurement": "Amounts of liver fat globules, p-HSL staining", "setting": "liver fat globules; Protection group", "value": 28}, {"measurement": "Diameter of fat globules in steatohepatitis, ATGL staining", "setting": "liver fat globules; Protection group", "value": 5.5, "unit": "μm"}, {"measurement": "Diameter of fat globules in steatohepatitis, CD11c-M1 staining", "setting": "liver fat globules; Protection group", "value": 8, "unit": "μm"}, {"measurement": "Diameter of fat globules in steatohepatitis, CD209a-M2 staining", "setting": "liver fat globules; Protection group", "value": 9.5, "unit": "μm"}, {"measurement": "Diameter of liver fat globules, HSL staining", "setting": "liver fat globules; Protection group", "value": 9.7, "unit": "μm"}, {"measurement": "Diameter of liver fat globules, MMP-9 staining", "setting": "liver fat globules; Protection group", "value": 8, "unit": "μm"}, {"measurement": "Diameter of liver fat globules, TNF-α staining", "setting": "liver fat globules; Protection group", "value": 8, "unit": "μm"}, {"measurement": "Diameter of liver fat globules, p-HSL staining", "setting": "liver fat globules; Protection group", "value": 3.9, "unit": "μm"}, {"measurement": "Amounts of fat globules in steatohepatitis, ATGL staining", "setting": "liver fat globules; Treatment group", "value": 46}, {"measurement": "Amounts of fat globules in steatohepatitis, CD11c-M1 staining", "setting": "liver fat globules; Treatment group", "value": 41}, {"measurement": "Amounts of fat globules in steatohepatitis, CD209a-M2 staining", "setting": "liver fat globules; Treatment group", "value": 50}, {"measurement": "Amounts of liver fat globules, HSL staining", "setting": "liver fat globules; Treatment group", "value": 116}, {"measurement": "Amounts of liver fat globules, MMP-9 staining", "setting": "liver fat globules; Treatment group", "value": 19}, {"measurement": "Amounts of liver fat globules, TNF-α staining", "setting": "liver fat globules; Treatment group", "value": 19}, {"measurement": "Amounts of liver fat globules, p-HSL staining", "setting": "liver fat globules; Treatment group", "value": 68}, {"measurement": "Diameter of fat globules in steatohepatitis, ATGL staining", "setting": "liver fat globules; Treatment group", "value": 9.8, "unit": "μm"}, {"measurement": "Diameter of fat globules in steatohepatitis, CD11c-M1 staining", "setting": "liver fat globules; Treatment group", "value": 15.5, "unit": "μm"}, {"measurement": "Diameter of fat globules in steatohepatitis, CD209a-M2 staining", "setting": "liver fat globules; Treatment group", "value": 11.8, "unit": "μm"}, {"measurement": "Diameter of liver fat globules, HSL staining", "setting": "liver fat globules; Treatment group", "value": 9.8, "unit": "μm"}, {"measurement": "Diameter of liver fat globules, MMP-9 staining", "setting": "liver fat globules; Treatment group", "value": 9, "unit": "μm"}, {"measurement": "Diameter of liver fat globules, TNF-α staining", "setting": "liver fat globules; Treatment group", "value": 9, "unit": "μm"}, {"measurement": "Diameter of liver fat globules, p-HSL staining", "setting": "liver fat globules; Treatment group", "value": 9.8, "unit": "μm"}, {"measurement": "body-weight gain", "setting": "[1]; HFD mice 8 weeks, KMUP-1 HCl 2.5, 5 mg/kg p.o., simvastatin 5 mg/kg p.o., compared to the control HFD group (p<0.05)", "value": "reduced"}, {"measurement": "final BW (Body weight)", "setting": "[1]; HFD mice, 2.5 mg/kg p.o.", "value": "25.7 ± 0.7", "unit": "g"}, {"measurement": "final BW (Body weight)", "setting": "[1]; HFD mice, 5 mg/kg p.o.", "value": "24.3 ± 0.5", "unit": "g"}, {"measurement": "body weight", "setting": "[1]; HFD mice, drinking 2.5 mg/200 ml water, protection and treatment groups", "value": "decreased"}, {"measurement": "SR-B1", "setting": "SR-B1; Protection group", "value": 29, "unit": "%"}, {"measurement": "SR-B1 expression", "setting": "SR-B1; [2]", "value": 30, "unit": "%"}, {"measurement": "SR-B1 expression", "setting": "SR-B1; [3]", "value": 59, "unit": "%"}, {"measurement": "SR-B1", "setting": "SR-B1; treatment 2.5 mg/200 mL drink", "value": 59, "unit": "%"}, {"measurement": "Immunorespons percentages, HSL", "setting": "HSL", "value": 57, "unit": "%"}, {"measurement": "PKA/PKG expression", "setting": "PKA/PKG; [2]", "value": 250, "unit": "%"}, {"measurement": "PKA/PKG expression", "setting": "PKA/PKG; [3]", "value": 100, "unit": "%"}, {"measurement": "Immunorespons percentages, eNOS", "setting": "eNOS", "value": 39, "unit": "%"}, {"measurement": "Immunorespons percentages, TNF-α", "setting": "TNF-α", "value": 22, "unit": "%"}]}
